# According to ChEMBL document CHEMBL1140568, “Trisubstituted pyrimidines as transient receptor potential vanilloid 1 (TRPV1) antagonists with improved solubility” (Bioorg Med Chem Lett, 2007):
# Legend:
# [1] = Aqueous solubility in 0.01N HCl; format: physicochemical
# [2] = biological target: T1, Transient receptor potential cation channel subfamily V member 1 (Rattus norvegicus, UniProt O35433); test: Antagonist activity at rat TRPV1 expressed in CHO cells assessed inhibition of capsaicin induced calcium influx; format: functional, cell-based
# [3] = biological target: T1, Transient receptor potential cation channel subfamily V member 1; test: Antagonist activity at rat TRPV1 expressed in CHO cells assessed inhibition of acid induced calcium influx; format: functional, cell-based
# [4] = Aqueous solubility in fasted-state stimulated intestinal fluid at pH 6.8; format: physicochemical; settings: fasted-state simulated intestinal fluid
# [5] = Aqueous solubility in PBS at pH 7; format: physicochemical
# [6] = Volume of distribution at steady state in Sprague-Dawley rat at 1 mg/kg, iv; format: ADME, organism-based; set-up: dose 1 mg/kg, route intravenous; settings: in vivo, read-out: Vdss
# [7] = AUC (0 to infinity) in Sprague-Dawley rat at 1 mg/kg, iv; format: ADME, organism-based; set-up: time infinity, dose 1 mg/kg, route intravenous; settings: plasma
# [8] = Clearance in Sprague-Dawley rat at 1 mg/kg, iv; format: ADME, organism-based; set-up: dose 1 mg/kg, route intravenous; settings: in vivo
# [9] = Half life in Sprague-Dawley rat at 1 mg/kg, iv; format: ADME, organism-based; set-up: dose 1 mg/kg, route intravenous; settings: in vivo
# [10] = Oral bioavailability in Sprague-Dawley rat at 5 mg/kg; format: ADME, organism-based; settings: in vivo
# [11] = Cmax in Sprague-Dawley rat at 5 mg/kg, po; format: ADME, organism-based; set-up: dose 5 mg/kg, route oral; settings: in vivo
# [12] = AUC (0 to infinity) in Sprague-Dawley rat at 5 mg/kg, po; format: ADME, organism-based; set-up: time infinity, dose 5 mg/kg, route oral; settings: plasma
# T1 sequence (O35433 whole entry): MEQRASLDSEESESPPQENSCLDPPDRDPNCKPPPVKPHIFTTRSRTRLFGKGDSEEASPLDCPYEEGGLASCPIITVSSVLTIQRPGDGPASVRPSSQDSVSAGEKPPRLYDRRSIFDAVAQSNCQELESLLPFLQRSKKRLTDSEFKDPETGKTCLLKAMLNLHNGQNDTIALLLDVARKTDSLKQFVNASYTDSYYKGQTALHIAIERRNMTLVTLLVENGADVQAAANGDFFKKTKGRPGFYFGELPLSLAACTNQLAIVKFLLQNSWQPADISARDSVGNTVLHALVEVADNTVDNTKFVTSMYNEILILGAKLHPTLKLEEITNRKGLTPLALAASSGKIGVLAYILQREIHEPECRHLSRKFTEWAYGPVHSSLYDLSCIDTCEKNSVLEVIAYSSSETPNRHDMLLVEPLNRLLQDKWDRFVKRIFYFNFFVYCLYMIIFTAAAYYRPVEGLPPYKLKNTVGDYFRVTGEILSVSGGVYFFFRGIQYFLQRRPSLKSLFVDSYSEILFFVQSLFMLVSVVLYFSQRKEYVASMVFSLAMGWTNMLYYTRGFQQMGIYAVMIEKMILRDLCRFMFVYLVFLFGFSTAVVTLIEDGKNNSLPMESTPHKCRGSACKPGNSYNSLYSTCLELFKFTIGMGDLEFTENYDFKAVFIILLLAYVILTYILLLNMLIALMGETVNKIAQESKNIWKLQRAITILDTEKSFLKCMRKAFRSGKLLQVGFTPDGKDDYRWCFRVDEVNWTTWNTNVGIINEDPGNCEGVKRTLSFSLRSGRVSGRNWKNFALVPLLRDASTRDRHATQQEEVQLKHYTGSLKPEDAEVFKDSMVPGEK
solubility [1],IC50 [2],IC50 [3],solubility [4],solubility [5],Vd [6],AUC(0-inf) [7],clearance [8],half-life [9],bioavailability [10],Cmax [11],AUC(0-inf) [12],Structure (SMILES)
21 µg/mL,35 nM,90 nM,12 µg/mL,2 µg/mL,,,,,,,,CC(=O)Nc1nc2c(Oc3cc(-c4ccc(C(F)(F)F)cc4)nc(N4CCC(O)CC4)n3)cccc2s1
≤ 1 µg/mL,410 nM,27 nM,3.4 µg/mL,6 µg/mL,,,,,,,,CC(=O)Nc1nc2c(Oc3cc(-c4ccc(C(F)(F)F)cc4)nc(N4CCC(C(=O)O)CC4)n3)cccc2s1
≤ 1 µg/mL,5.1 nM,1.5 nM,2.8 µg/mL,≤ 1 µg/mL,,,,,,,,CC(=O)Nc1nc2c(Oc3cc(-c4ccc(C(F)(F)F)cc4)nc(N4CCCCC4)n3)cccc2s1
,,,,,6.38 L/kg,258 ng·h/mL,67.3 mL/min/kg,2 h,,,,CC(=O)Nc1nc2c(Oc3cc(-c4ccc(C(F)(F)F)cc4)nc(C4=CCN(CC(C)C)CC4)n3)cccc2s1
4.7 µg/mL,12 nM,4.8 nM,3.5 µg/mL,8.8 µg/mL,,,,,,,,CC(=O)Nc1nc2c(Oc3cc(-c4ccc(C(F)(F)F)cc4)nc(N)n3)cccc2s1
≤ 1 µg/mL,28 nM,1.1 nM,1.4 µg/mL,≤ 1 µg/mL,,,,,,,,CC(=O)Nc1nc2c(Oc3cc(-c4ccc(C(F)(F)F)cc4)nc(N4CCOCC4)n3)cccc2s1
≥ 200 µg/mL,51 nM,64 nM,≥ 200 µg/mL,9.4 µg/mL,,,,,,,,CC(=O)Nc1nc2c(Oc3cc(-c4ccc(C(F)(F)F)cc4)nc(NCC4CCN(CC(C)C)CC4)n3)cccc2s1
≥ 200 µg/mL,6.1 nM,11 nM,190 µg/mL,9.1 µg/mL,8.29 L/kg,351 ng·h/mL,47.7 mL/min/kg,2.6 h,,,,CC(=O)Nc1nc2c(Oc3cc(-c4ccc(C(F)(F)F)cc4)nc(NCC4CCCCN4CC(C)C)n3)cccc2s1 (configuration not stated)
≥ 200 µg/mL,1.5 nM,1.6 nM,150 µg/mL,6.7 µg/mL,6.44 L/kg,743 ng·h/mL,22.5 mL/min/kg,5.5 h,24%,280 ng/mL,899 ng·h/mL,CC(=O)Nc1nc2c(Oc3cc(-c4ccc(C(F)(F)F)cc4)nc(NC(C)c4ccccn4)n3)cccc2s1 (configuration not stated)
< 1 µg/mL,,,,< 1 µg/mL,,,,,,,,CC(=O)Nc1nc2c(Oc3cc(-c4ccc(C(F)(F)F)cc4)ncn3)cccc2s1 [AMG-517]
